The text below walks through data of ChEMBL document CHEMBL6092162, “Identification of novel and potent triazoles targeting CYP51 for antifungal: Design, synthesis, and biological study” (Eur J Med Chem, 2024).

What all share (assay type): functional
Assay [1] has as its system Candida albicans. Description: Antifungal activity against Candida albicans SC5314 assessed as inhibition of fungal growth by CLSI M27-A3 guidelines based method.
Assay [2] relates to Candida albicans. Description: Antifungal activity against Candida albicans GIM 2.194 assessed as inhibition of fungal growth by CLSI M27-A3 guidelines based method.
The test system of the next assay is Candida tropicalis. The assay is described as follows: Antifungal activity against Candida tropicalis GIM 2.183 assessed as inhibition of fungal growth by CLSI M27-A3 guidelines based method.
The test system of a further assay is Candida parapsilosis. Description: Antifungal activity against Candida parapsilosis GIM 2.190 assessed as inhibition of fungal growth by CLSI M27-A3 guidelines based method. To be noted: Lodderomyces parapsilosis.
The test system of the next assay is Nakaseomyces glabratus. Description: Antifungal activity against Candida glabrata assessed as inhibition of fungal growth by CLSI M27-A3 guidelines based method.
The test system of a further assay is Pichia kudriavzevii. Description: Antifungal activity against Candida krusei GIM 2.1 assessed as inhibition of fungal growth by CLSI M27-A3 guidelines based method.
For the next assay, the system named is Cryptococcus neoformans. The assay is described as follows: Antifungal activity against Cryptococcus neoformans CGMCC 2.3161 assessed as inhibition of fungal growth by CLSI M27-A3 guidelines based method.
Assay [3] concerns Candida albicans. The assay is described as follows: Antifungal activity against fluconazole and iodiconazole resistant Candida albicans clinical isolate 17# assessed as inhibition of fungal growth by CLSI M27-A3 guidelines based method.
Assay [4] concerns Candida albicans. Description: Antifungal activity against fluconazole-resistant Candida albicans CaR assessed as inhibition of fungal growth by CLSI M27-A3 guidelines based method.
Assay [5] concerns Candida albicans. Description: Antifungal activity against fluconazole-resistant Candida albicans clinical isolate 901 assessed as inhibition of fungal growth by CLSI M27-A3 guidelines based method.
The subject of assay [6] is Candida albicans. The assay is described as follows: Antifungal activity against fluconazole-resistant Candida albicans clinical isolate 904 assessed as inhibition of fungal growth by CLSI M27-A3 guidelines based method.
The subject of assay [7] is Candida albicans. Description: Antifungal activity against fluconazole-resistant Candida albicans clinical isolate 632 assessed as inhibition of fungal growth by CLSI M27-A3 guidelines based method.
Assay [8] deals with Candida albicans. The assay is described as follows: Antifungal activity against fluconazole-resistant Candida albicans clinical isolate 100 assessed as inhibition of fungal growth by CLSI M27-A3 guidelines based method.
Assay [9] relates to Candida albicans. The assay is described as follows: Antifungal activity against fluconazole-resistant Candida albicans clinical isolate 103 assessed as inhibition of fungal growth by CLSI M27-A3 guidelines based method.
The subject of assay [10] is Candida albicans. Description: Antifungal activity against fluconazole-resistant Candida albicans clinical isolate 311 assessed as inhibition of fungal growth by CLSI M27-A3 guidelines based method.

Molecules are shown by their SMILES. ≈ marks a conversion by molar mass, not a printed value.

In the case of `CC(=O)N1CCN(c2ccc(CN(C)CC(O)(Cn3cncn3)c3ccc(F)cc3F)cc2)CC1` (configuration not stated), the MIC80 is 0.5 µg/mL (≈ 1.03 µM) with Candida albicans [1]; 0.1 µg/mL (≈ 0.206 µM) in the assay with Candida albicans [2]; 0.5 µg/mL (≈ 1.03 µM) in the assay with Candida tropicalis; 0.1 µg/mL (≈ 0.206 µM) in the assay on Candida parapsilosis; 16 µg/mL (≈ 33 µM) in the assay on Nakaseomyces glabratus; 16 µg/mL (≈ 33 µM) with Pichia kudriavzevii. Further, in the assay on Cryptococcus neoformans, the MIC80 amounted to 8 µg/mL (≈ 16.5 µM).
In the case of `CN(Cc1ccc(N2CCN(Cc3ccc(Br)cc3)CC2)cc1)CC(O)(Cn1cncn1)c1ccc(F)cc1F` (configuration not stated), the MIC80 with Candida albicans [1] is 0.025 µg/mL (≈ 0.0409 µM); in the assay with Candida albicans [2], 0.025 µg/mL (≈ 0.0409 µM); in the assay on Candida tropicalis it was 0.025 µg/mL (≈ 0.0409 µM); with Candida parapsilosis, 0.05 µg/mL (≈ 0.0818 µM); in the assay on Nakaseomyces glabratus, 0.4 µg/mL (≈ 0.654 µM); in the assay with Pichia kudriavzevii, 0.1 µg/mL (≈ 0.164 µM). Also, in the assay with Cryptococcus neoformans, the MIC80 turned out to be 0.2 µg/mL (≈ 0.327 µM).
On to `CN(Cc1ccc(N2CCN(Cc3ccc(-c4ccccc4)cc3)CC2)cc1)CC(O)(Cn1cncn1)c1ccc(F)cc1F` (configuration not stated), for which the MIC80 with Candida albicans [1] amounted to 0.025 µg/mL (≈ 0.0411 µM); in the assay on Candida albicans [2] it was 0.025 µg/mL (≈ 0.0411 µM); in the assay with Candida tropicalis it was 0.013 µg/mL (≈ 0.0214 µM); in the assay with Candida parapsilosis, 0.025 µg/mL (≈ 0.0411 µM); in the assay with Nakaseomyces glabratus it was 0.4 µg/mL (≈ 0.657 µM); in the assay with Pichia kudriavzevii it was 0.2 µg/mL (≈ 0.329 µM). Moreover, the MIC80 in the assay on Cryptococcus neoformans was 0.3 µg/mL (≈ 0.493 µM).
As for `CN(Cc1ccc(N2CCN(Cc3ccc(C#N)cc3)CC2)cc1)CC(O)(Cn1cncn1)c1ccc(F)cc1F` (configuration not stated), the MIC80 was determined as 0.05 µg/mL (≈ 0.0897 µM) in the assay on Candida albicans [1]; 0.05 µg/mL (≈ 0.0897 µM) in the assay with Candida albicans [2]; 0.05 µg/mL (≈ 0.0897 µM) with Candida tropicalis; 0.1 µg/mL (≈ 0.179 µM) with Candida parapsilosis; 1.6 µg/mL (≈ 2.87 µM) in the assay on Nakaseomyces glabratus; 1.6 µg/mL (≈ 2.87 µM) with Pichia kudriavzevii. In the assay with Cryptococcus neoformans, the MIC80 worked out at 0.2 µg/mL (≈ 0.359 µM).
Turning to `CCC(=O)N1CCN(c2ccc(CN(C)CC(O)(Cn3cncn3)c3ccc(F)cc3F)cc2)CC1` (configuration not stated), the MIC80 in the assay on Candida albicans [1] came to 0.25 µg/mL (≈ 0.501 µM); with Candida albicans [2] it was 0.5 µg/mL (≈ 1 µM); in the assay with Candida tropicalis, 0.5 µg/mL (≈ 1 µM); with Candida parapsilosis, 0.1 µg/mL (≈ 0.201 µM); in the assay with Nakaseomyces glabratus, 16 µg/mL (≈ 32.1 µM); in the assay with Pichia kudriavzevii, 16 µg/mL (≈ 32.1 µM). In addition, in the assay with Cryptococcus neoformans, the MIC80 stood at 8 µg/mL (≈ 16 µM).
As to `CN(Cc1ccc(N2CCN(Cc3ccccc3F)CC2)cc1)CC(O)(Cn1cncn1)c1ccc(F)cc1F` (configuration not stated), the MIC80 in the assay on Candida albicans [1] stood at 0.05 µg/mL (≈ 0.0908 µM); in the assay on Candida albicans [2], 0.006 µg/mL (≈ 0.0109 µM); in the assay on Candida tropicalis it was 0.05 µg/mL (≈ 0.0908 µM); with Candida parapsilosis, 0.025 µg/mL (≈ 0.0454 µM); with Nakaseomyces glabratus, 0.4 µg/mL (≈ 0.726 µM); with Pichia kudriavzevii, 0.1 µg/mL (≈ 0.182 µM). Moreover, in the assay on Cryptococcus neoformans, the MIC80 was determined as 0.2 µg/mL (≈ 0.363 µM).
Take `CC(C)C(=O)N1CCN(c2ccc(CN(C)CC(O)(Cn3cncn3)c3ccc(F)cc3F)cc2)CC1` (configuration not stated): the MIC80 was 0.25 µg/mL (≈ 0.488 µM) with Candida albicans [1]; 1 µg/mL (≈ 1.95 µM) with Candida albicans [2]; 0.5 µg/mL (≈ 0.975 µM) in the assay on Candida tropicalis; 0.25 µg/mL (≈ 0.488 µM) with Candida parapsilosis; 16 µg/mL (≈ 31.2 µM) in the assay on Nakaseomyces glabratus; 16 µg/mL (≈ 31.2 µM) with Pichia kudriavzevii. Also, in the assay with Cryptococcus neoformans, the MIC80 stood at 16 µg/mL (≈ 31.2 µM).
As to `CN(Cc1ccc(N2CCN(Cc3ccc(N)cc3)CC2)cc1)CC(O)(Cn1cncn1)c1ccc(F)cc1F` (configuration not stated), the MIC80 worked out at 1.6 µg/mL (≈ 2.92 µM) in the assay with Candida albicans [1]; 3.2 µg/mL (≈ 5.84 µM) in the assay on Candida albicans [2]; 1.6 µg/mL (≈ 2.92 µM) in the assay on Candida tropicalis; 3.2 µg/mL (≈ 5.84 µM) with Candida parapsilosis; 3.2 µg/mL (≈ 5.84 µM) in the assay on Nakaseomyces glabratus; 3.2 µg/mL (≈ 5.84 µM) in the assay with Pichia kudriavzevii. Besides, the MIC80 with Cryptococcus neoformans was determined as 3.2 µg/mL (≈ 5.84 µM).
In the case of `CN(Cc1ccc(N2CCN(Cc3cc(F)ccc3Br)CC2)cc1)CC(O)(Cn1cncn1)c1ccc(F)cc1F` (configuration not stated), the MIC80 in the assay with Candida albicans [1] was found to be 0.013 µg/mL (≈ 0.0207 µM); with Candida albicans [2], 0.025 µg/mL (≈ 0.0397 µM); in the assay on Candida tropicalis, 0.006 µg/mL (≈ 0.00953 µM); with Candida parapsilosis, 0.006 µg/mL (≈ 0.00953 µM); with Nakaseomyces glabratus, 0.1 µg/mL (≈ 0.159 µM); in the assay with Pichia kudriavzevii, 0.1 µg/mL (≈ 0.159 µM). The MIC80 was 0.25 µg/mL (≈ 0.397 µM) in the assay on Candida albicans [3]; 0.063 µg/mL (≈ 0.1 µM) in the assay with Candida albicans [4]; above 64 µg/mL with Candida albicans [5]; 8 µg/mL (≈ 12.7 µM) in the assay with Candida albicans [6]; 16 µg/mL (≈ 25.4 µM) with Candida albicans [7]; 2 µg/mL (≈ 3.18 µM) in the assay with Candida albicans [8]. In addition, the figures for the MIC80 with Candida albicans [9] and in the assay with Candida albicans [10] were 8 µg/mL (≈ 12.7 µM) and 32 µg/mL (≈ 50.8 µM), respectively.
For the compound `CN(Cc1ccc(N2CCN(Cc3ccc(F)cc3)CC2)cc1)CC(O)(Cn1cncn1)c1ccc(F)cc1F` (configuration not stated), the MIC80 in the assay with Candida albicans [1] amounted to 0.1 µg/mL (≈ 0.182 µM); in the assay with Candida albicans [2] it was 0.05 µg/mL (≈ 0.0908 µM); with Candida tropicalis, 0.1 µg/mL (≈ 0.182 µM); with Candida parapsilosis, 0.2 µg/mL (≈ 0.363 µM); in the assay with Nakaseomyces glabratus, 0.8 µg/mL (≈ 1.45 µM); in the assay on Pichia kudriavzevii it was 0.2 µg/mL (≈ 0.363 µM). Moreover, the MIC80 in the assay on Cryptococcus neoformans is 0.8 µg/mL (≈ 1.45 µM).
